Experimental data as given in the supplement of paper PMC10307832.

Key:
Test in all cases: relative viability (nuclei count vs DMSO), 5 days (fraction); higher = more cells survive
[1] = tested on: A-427
How it was run: (§1)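 Dosing by pin tool came one day after lung cancer cell lines were seeded in 1536-well plates, using either one drug or a fixed anchor-drug dose plus five library-drug doses (not always all listed) in √10 steps. After 5 days, nuclei were counted on 4× images. Relative viability is treated-well nuclei count divided by vehicle-well nuclei count, and values are medians of duplicate plates.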

[2] = tested on: ABC-1
How it was run: as §1

[3] = tested on: COR-L23
How it was run: as §1

[4] = tested on: EMC-BAC-2
How it was run: as §1

[5] = tested on: HARA
How it was run: as §1

[6] = tested on: HOP-62
How it was run: as §1

[7] = tested on: LK-2
How it was run: as §1

[8] = tested on: LXF-289
How it was run: as §1

[9] = tested on: NCI-H1793
How it was run: as §1

[10] = tested on: NCI-H1944
How it was run: as §1

[11] = tested on: NCI-H1993
How it was run: as §1

[12] = tested on: NCI-H2009
How it was run: as §1

[13] = tested on: NCI-H2170
How it was run: as §1

[14] = tested on: NCI-H2228
How it was run: as §1

[15] = tested on: NCI-H3122
How it was run: as §1

[16] = tested on: NCI-H596
How it was run: as §1

[17] = tested on: NCI-H727
How it was run: as §1

[18] = tested on: PC-3 [JPC-3]
How it was run: as §1

[19] = tested on: SK-LU-1
How it was run: as §1

[20] = tested on: SK-MES-1
How it was run: as §1

[21] = tested on: SW 1573
How it was run: as §1

[22] = tested on: SW 900
How it was run: as §1

SMILES: C=C1C(=O)O[C@@H](CCCCCCCC)[C@@H]1C(=O)O [C-75] + Cc1cc(Nc2cc(N3CCN(C)CC3)nc(Sc3ccc(NC(=O)C4CC4)cc3)n2)n[nH]1 [Tozasertib] (partner 0.1 µM)
- relative viability ([1]; first compound 0.08 µM): 0.219
- relative viability ([1]; first compound 0.253 µM): 0.264
- relative viability ([1]; first compound 0.8 µM): 0.221
- relative viability ([1]; first compound 2.53 µM): 0.199
- relative viability ([1]; first compound 8 µM): 0.175
- relative viability ([2]; first compound 0.08 µM): 0.137
- relative viability ([2]; first compound 0.253 µM): 0.163
- relative viability ([2]; first compound 0.8 µM): 0.198
- relative viability ([2]; first compound 2.53 µM): 0.173
- relative viability ([2]; first compound 8 µM): 0.183
- relative viability ([3]; first compound 0.08 µM): 0.232
- relative viability ([3]; first compound 0.253 µM): 0.267
- relative viability ([3]; first compound 0.8 µM): 0.209
- relative viability ([3]; first compound 2.53 µM): 0.172
- relative viability ([3]; first compound 8 µM): 0.179
- relative viability ([4]; first compound 0.08 µM): 0.279
- relative viability ([4]; first compound 0.253 µM): 0.288
- relative viability ([4]; first compound 0.8 µM): 0.294
- relative viability ([4]; first compound 2.53 µM): 0.235
- relative viability ([4]; first compound 8 µM): 0.315
- relative viability ([5]; first compound 0.08 µM): 0.149
- relative viability ([5]; first compound 0.253 µM): 0.0813
- relative viability ([5]; first compound 0.8 µM): 0.112
- relative viability ([5]; first compound 2.53 µM): 0.0971
- relative viability ([5]; first compound 8 µM): 0.145
- relative viability ([6]; first compound 0.08 µM): 0.373
- relative viability ([6]; first compound 0.253 µM): 0.389
- relative viability ([6]; first compound 0.8 µM): 0.363
- relative viability ([6]; first compound 2.53 µM): 0.385
- relative viability ([6]; first compound 8 µM): 0.335
- relative viability ([7]; first compound 0.08 µM): 0.214
- relative viability ([7]; first compound 0.253 µM): 0.157
- relative viability ([7]; first compound 0.8 µM): 0.195
- relative viability ([7]; first compound 2.53 µM): 0.155
- relative viability ([7]; first compound 8 µM): 0.19
- relative viability ([8]; first compound 0.08 µM): 0.193
- relative viability ([8]; first compound 0.253 µM): 0.18
- relative viability ([8]; first compound 0.8 µM): 0.183
- relative viability ([8]; first compound 2.53 µM): 0.119
- relative viability ([8]; first compound 8 µM): 0.182
- relative viability ([9]; first compound 0.08 µM): 0.306
- relative viability ([9]; first compound 0.253 µM): 0.315
- relative viability ([9]; first compound 0.8 µM): 0.344
- relative viability ([9]; first compound 2.53 µM): 0.258
- relative viability ([9]; first compound 8 µM): 0.335
- relative viability ([10]; first compound 0.08 µM): 0.256
- relative viability ([10]; first compound 0.253 µM): 0.235
- relative viability ([10]; first compound 0.8 µM): 0.243
- relative viability ([10]; first compound 8 µM): 0.246
- relative viability ([11]; first compound 0.08 µM): 0.611
- relative viability ([11]; first compound 0.253 µM): 0.623
- relative viability ([11]; first compound 0.8 µM): 0.59
- relative viability ([11]; first compound 2.53 µM): 0.495
- relative viability ([11]; first compound 8 µM): 0.529
- relative viability ([12]; first compound 0.08 µM): 0.724
- relative viability ([12]; first compound 0.253 µM): 0.743
- relative viability ([12]; first compound 0.8 µM): 0.743
- relative viability ([12]; first compound 2.53 µM): 0.707
- relative viability ([12]; first compound 8 µM): 0.691
- relative viability ([13]; first compound 0.08 µM): 0.682
- relative viability ([13]; first compound 0.253 µM): 0.826
- relative viability ([13]; first compound 0.8 µM): 0.796
- relative viability ([13]; first compound 2.53 µM): 0.291
- relative viability ([13]; first compound 8 µM): 0.861
- relative viability ([14]; first compound 0.08 µM): 0.29
- relative viability ([14]; first compound 0.253 µM): 0.344
- relative viability ([14]; first compound 0.8 µM): 0.26
- relative viability ([14]; first compound 2.53 µM): 0.25
- relative viability ([14]; first compound 8 µM): 0.269
- relative viability ([15]; first compound 0.08 µM): 0.414
- relative viability ([15]; first compound 0.253 µM): 0.514
- relative viability ([15]; first compound 0.8 µM): 0.403
- relative viability ([15]; first compound 8 µM): 0.518
- relative viability ([16]; first compound 0.08 µM): 0.889
- relative viability ([16]; first compound 0.253 µM): 1.09
- relative viability ([16]; first compound 0.8 µM): 0.728
- relative viability ([16]; first compound 2.53 µM): 0.83
- relative viability ([16]; first compound 8 µM): 0.821
- relative viability ([17]; first compound 0.08 µM): 0.623
- relative viability ([17]; first compound 0.253 µM): 0.623
- relative viability ([17]; first compound 0.8 µM): 0.559
- relative viability ([17]; first compound 8 µM): 0.674
- relative viability ([18]; first compound 0.08 µM): 0.902
- relative viability ([18]; first compound 0.253 µM): 0.921
- relative viability ([18]; first compound 0.8 µM): 0.896
- relative viability ([18]; first compound 2.53 µM): 0.858
- relative viability ([18]; first compound 8 µM): 0.992
- relative viability ([19]; first compound 0.08 µM): 0.349
- relative viability ([19]; first compound 0.253 µM): 0.374
- relative viability ([19]; first compound 0.8 µM): 0.357
- relative viability ([19]; first compound 2.53 µM): 0.314
- relative viability ([19]; first compound 8 µM): 0.311
- relative viability ([20]; first compound 0.08 µM): 0.924
- relative viability ([20]; first compound 0.253 µM): 0.989
- relative viability ([20]; first compound 0.8 µM): 0.823
- relative viability ([20]; first compound 2.53 µM): 0.863
- relative viability ([20]; first compound 8 µM): 0.898
- relative viability ([21]; first compound 0.08 µM): 0.268
- relative viability ([21]; first compound 0.253 µM): 0.161
- relative viability ([21]; first compound 0.8 µM): 0.189
- relative viability ([21]; first compound 2.53 µM): 0.215
- relative viability ([21]; first compound 8 µM): 0.184
- relative viability ([22]; first compound 0.08 µM): 0.595
- relative viability ([22]; first compound 0.253 µM): 0.919
- relative viability ([22]; first compound 0.8 µM): 0.571
- relative viability ([22]; first compound 2.53 µM): 0.704
- relative viability ([22]; first compound 8 µM): 0.506
